Here are results for four compounds from patent publication US6696491B2, “Treating irritable bowel syndrome or disease” (Meracol Corporation Limited, priority 2000, dated 2004).

For one test, the system named is IBS and/or IBD. Description: Trials with a variety of patients using dosage forms of cetyl myristate alone. Format: in vivo, human.
The conditions of test [1]: laboratory experiments; website www.gcinutrients.com; cited from earlier work.
Test [2] has as its system Irritable Bowel Syndrome / chronic diarrhea. As to the kind of experiment: Earlier conventional medication of the trial patients (patient history). Type of test: in vivo, human. As to conditions: for reduction of symptoms: Patient 3, IBS, tried over 40 years before the trial. How it is done:
They were assessed by a gastroenterologist in 1989 and placed on long-term use of Imodium. This was given to reduce the number of bowel motions.
They also tried Colestid and was told to remain on this indefinitely to reduce their diarrhea.
Patient 3 was diagnosed with Irritable Bowel Syndrome, and over the next 40 years, tried many different medicines including Colestid sachets, Imodium, Codeine, cholestyramine, and Dicap. […] During this time, patient 3 has been admitted four times to a hospital for acute exacerbations of diarrhea.
Patient 4 has been diagnosed with irritable Bowel Syndrome for over a year and suffers from an extremely swollen abdomen with constant flatulence and diarrhea. Patient 4 has taken Mucilax, bran and has made major dietary alterations, all with no effect. Further effects of Irritable Bowel Syndrome to patient 4 included exhaustion, with the patient sleeping between 12-15 hours daily.

In the case of `CCCCCCCCCCCCCCCCOC(=O)CCCCCCCCCCCCC` [cetyl myristate], the “relief from the symptoms of IBS and/or IBD” value with IBS and/or IBD was “favorable responses”. Besides, in test [1], the anti-arthritic activity entry is “negligible”.

In the case of `COc1ccc2c3c1O[C@H]1[C@@H](O)C=C[C@H]4[C@@H](C2)N(C)CC[C@@]341` [Codeine], the reduction of symptoms entry in test [2] is given as “none of the medicines listed were able to reduce the symptoms”.

Turning to cholestyramine, in test [2], the reduction of symptoms result was “none of the medicines listed were able to reduce the symptoms”.

For the compound `CN(C)C(=O)C(CCN1CCC(O)(c2ccc(Cl)cc2)CC1)(c1ccccc1)c1ccccc1` [Imodium], the “reduction of the number of bowel motions” value in test [2] (Patient 1, long-term use from 1989, before the trial) is reported as “some benefits from this but they did not improve sufficiently”. In addition, the reduction of symptoms result in test [2] is recorded as “none of the medicines listed were able to reduce the symptoms”.
